Measured values taken from patent publication US12485105B2, “Composition for suppressing obesity” (DAICEL CORPORATION, priority 2019, dated 2025).

What was measured:
C57BL/6 male mice [1] = experiment: Body weight and adipose tissue fat weights of mice fed normal or high-fat diet with 8PN for 8 weeks; format: in vivo; conditions: for increase in the fat weight of the subcutaneous adipose tissue: vs Group 4, FIG. 2; for increase in the fat weight of the brown adipose tissue: vs Group 4, FIG. 3; for increase in the fat weight of the mesenteric adipose tissue: vs Group 4, FIG. 4; for increase in the fat weight of the perirenal adipose tissue: vs Group 4, FIG. 5; for increase in the fat weight of the epididymal adipose tissue: vs Group 4, FIG. 6; for increase in the fat weight of the white adipose tissue: vs Group 4, total of adipose tissue other than brown, FIG. 7
Description: (§1) C57BL/6 male mice (available from Japan SLC, Inc.) were arranged into the following six groups of six mice each. Note that, 8-prenylnaringenin (may be described herein as 8PN) was used as the prenylflavonoid of the present embodiment. • (Group 1) Group that ingested a normal diet without the addition of 8PN • (Group 2) Group that ingested a normal diet with the addition of 8PN (final concentration: 0.0005%) • (Group 3) Group that ingested a normal diet with the addition of 8PN (final concentration: 0.005%) • (Group 4) Group that ingested a high-fat diet without the addition of 8PN • (Group 5) Group that ingested a high-fat diet with the addition of 8PN (final concentration: 0.0005%) • (Group 6) Group that ingested a high-fat diet with the addition of 8PN addition (final concentration: 0.005%)
(§2) AIN-93M feed was used as the normal diet (control diet), and AIN-93M feed containing 30% lard was used as the high-fat diet. These feeds were mixed with 8PN for Group 2, Group 3, Group 5 and Group 6.
(§3) The mice were each raised in individual cages, were allowed to freely consume each feed and deionized water, and were raised for 8 weeks. The rearing environment included a temperature of 22±2° C., humidity without artificial control, and light-dark cycles alternated every 12 hours. After 8 weeks, the mice were slaughtered by drawing blood from the heart under co-anesthesia of sevoflurane and somnopentyl, after which each mouse was weighed to measure the body weight. Next, subcutaneous adipose tissue, brown adipose tissue, mesenteric adipose tissue, perirenal adipose tissue, and epididymal adipose tissue were extracted from each mouse, and the fat weight in each tissue was measured by weighing with a scale. The total weight of adipose tissue other than the brown adipose tissue was calculated as the weight of white adipose tissue from the extracted fat.

C57BL/6 male mice [2] = experiment: Plasma glucose, cholesterol and insulin of mice fed high-fat diet with 8PN; format: in vivo; conditions: 8 weeks; for increase in the blood concentration of glucose: vs Group 4, FIG. 8; for increase in the blood concentration of cholesterol: vs Group 4, FIG. 9; for increase in the blood concentration of insulin: vs Group 4, FIG. 10
Description: as §1, §2, §3
Example 2 was carried out in the same manner as Example 1 up to the slaughtering of the mice. Blood was drawn from each mouse at the time of slaughtering and was centrifuged at 5000 rpm for 10 minutes, and plasma was obtained from the supernatant. The amount of glucose was measured using the Glucose CII Test Wako Kit (available from Fujifilm Wako Pure Chemical Corporation), and the amount of insulin was measured using the LBIS (trade name) Mouse Insulin ELISA Kit (RTU) (available from Fujifilm Wako Pure Chemical Corporation). In addition, the amount of cholesterol was measured using the LabAssay Cholesterol Kit (available from Fujifilm Wako Pure Chemical Corporation).

C57BL/6 male mice [3] = experiment: Thigh muscle weight of mice fed normal or high-fat diet with 8PN; format: in vivo; conditions: 8 weeks, p<0.05, FIG. 11
Description: as §1, §2, §3
Example 3 was implemented in the same manner as Example 1 up to the slaughtering of the mice. At the time of the slaughtering, the thigh muscles were removed from each mouse, and the weight of each muscle was measured by weighing with a scale.

[4] = target: T1, pig-derived pancreatic lipase II (Sus scrofa, UniProt P00591); experiment: Pancreatic lipase activity inhibition (triolein substrate, free fatty acids by NEFA C-Test); format: biochemical; conditions: 8PN final concentration 1.0, 2.0, 4.0, 7.0 or 10.0 mg/mL; 37° C., 30 minutes; FIG. 12
T1 construct: purchased Sigma
T1 sequence (P00591 1-450): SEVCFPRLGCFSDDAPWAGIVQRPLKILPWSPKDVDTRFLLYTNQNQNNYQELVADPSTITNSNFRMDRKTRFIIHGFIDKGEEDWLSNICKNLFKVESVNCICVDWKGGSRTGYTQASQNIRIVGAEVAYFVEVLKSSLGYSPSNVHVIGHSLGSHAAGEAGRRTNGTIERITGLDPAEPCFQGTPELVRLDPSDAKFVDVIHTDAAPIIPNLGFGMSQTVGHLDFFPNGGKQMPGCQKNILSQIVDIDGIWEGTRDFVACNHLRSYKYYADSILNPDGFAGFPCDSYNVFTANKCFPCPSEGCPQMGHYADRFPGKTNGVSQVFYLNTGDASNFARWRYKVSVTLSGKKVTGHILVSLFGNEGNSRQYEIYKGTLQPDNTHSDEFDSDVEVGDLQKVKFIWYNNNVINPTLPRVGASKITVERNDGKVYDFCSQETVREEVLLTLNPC
Procedure: An enzyme solution was prepared by dissolving pig-derived pancreatic lipase II (available from Sigma) in a 100 mM Tris-HCl buffer solution (pH 7.0) to make a final concentration of 250 μg/mL. In addition, 80 mg of triolein, 10 mg of lecithin, and 5 mg of sodium cholate were dissolved in 9 mL of a 100 mM tris-HCl buffer solution (pH 7.0), and the mixture was subjected to ultrasonic treatment for 10 minutes to prepare a substrate solution that was a homogeneous suspension. […] The reaction was stopped by a heating treatment at 100° C. for 2 minutes, and the amount of free fatty acids was measured through absorbance at a wavelength of 550 nm using the NEFA C-Test Wako Kit (available from Fujifilm Wako Pure Chemical Corporation). […]
Also note that a control was prepared in the same manner as described above with the exception that DMSO was used instead of 8PN. […] The lipase activity inhibition rate was calculated by the following calculation equation (1). Lipase activity inhibition rate (%)={1−((B−A)/(C−A))}×100 (1) • A: Absorbance of blank • B: Absorbance of test reaction solution • C: Absorbance of control

[5] = reported, Non-Patent Document 1; cited from earlier work
[6] = reported, Patent Document 1; cited from earlier work
[7] = reported, Patent Document 2; cited from earlier work
3T3-L1 cells = conditions: reported, Non-Patent Document 2; cited from earlier work
rats = conditions: administration to rats; reported, Non-Patent Document 3; cited from earlier work
SREBP = conditions: in rats; reported, Non-Patent Document 4; cited from earlier work
[8] = Group 5: high-fat diet with 8PN 0.0005%
[9] = Group 6: high-fat diet with 8PN 0.005%

CC(C)=CCc1c(O)cc(O)c2c1O[C@H](c1ccc(O)cc1)CC2=O [8PN, 8-prenylnaringenin]
increase in body weight (C57BL/6 male mice [1]; Group 5: high-fat diet with 8PN 0.0005%, vs Group 4 (high-fat diet without 8PN), FIG. 1): suppressed | increase in the fat weight of the subcutaneous adipose tissue (C57BL/6 male mice [1]; [8]): suppressed | increase in the fat weight of the brown adipose tissue (C57BL/6 male mice [1]; [8]): suppressed | increase in the fat weight of the mesenteric adipose tissue (C57BL/6 male mice [1]; [8]): suppressed | increase in the fat weight of the perirenal adipose tissue (C57BL/6 male mice [1]; [8]): suppressed | increase in the fat weight of the epididymal adipose tissue (C57BL/6 male mice [1]; [8]): suppressed | increase in the fat weight of the white adipose tissue (C57BL/6 male mice [1]; [8]): suppressed | increase in body weight (C57BL/6 male mice [1]; Group 6: high-fat diet with 8PN 0.005%, vs Group 4, FIG. 1): suppressed | increase in the fat weight of the subcutaneous adipose tissue (C57BL/6 male mice [1]; [9]): suppressed | increase in the fat weight of the brown adipose tissue (C57BL/6 male mice [1]; [9]): suppressed | increase in the fat weight of the mesenteric adipose tissue (C57BL/6 male mice [1]; [9]): suppressed | increase in the fat weight of the perirenal adipose tissue (C57BL/6 male mice [1]; [9]): suppressed | increase in the fat weight of the epididymal adipose tissue (C57BL/6 male mice [1]; [9]): suppressed | increase in the fat weight of the white adipose tissue (C57BL/6 male mice [1]; [9]): suppressed | increase in the blood concentration of glucose (C57BL/6 male mice [2]; [8]): suppressed | increase in the blood concentration of cholesterol (C57BL/6 male mice [2]; [8]): suppressed | increase in the blood concentration of insulin (C57BL/6 male mice [2]; [8]): suppressed | increase in the blood concentration of glucose (C57BL/6 male mice [2]; [9]): suppressed | increase in the blood concentration of cholesterol (C57BL/6 male mice [2]; [9]): suppressed | increase in the blood concentration of insulin (C57BL/6 male mice [2]; [9]): suppressed | weight of the thigh muscle (C57BL/6 male mice [3]; Group 2: normal diet with 8PN 0.0005%, vs Group 1 (normal diet without 8PN)): increased | weight of the thigh muscle (C57BL/6 male mice [3]; Group 3: normal diet with 8PN 0.005%, vs Group 1): increased | weight of the thigh muscle (C57BL/6 male mice [3]; Group 5: high-fat diet with 8PN 0.0005%, vs Group 4): increased | weight of the thigh muscle (C57BL/6 male mice [3]; Group 6: high-fat diet with 8PN 0.005%, vs Group 4): increased | lipase activity inhibition rate [4]: increased in a manner dependent on the concentration of 8PN | estrogen activity [5]: exhibits | angiogenesis inhibition [6]: exhibits | suppression of muscle disuse atrophy [7]: exhibits

COc1cc(O)c(CC=C(C)C)c(O)c1C(=O)/C=C/c1ccc(O)cc1 [xanthohumol]
differentiation of 3T3-L1 cells (3T3-L1 cells): has an effect of suppressing | lipid synthesis (3T3-L1 cells): an effect of suppressing | weight gain (rats): suppressed | SREBP activation and lipid synthesis (SREBP): suppresses
